Assay results as given in patent US8242275B2, “Bicyclic pyrazole compounds as antibacterial agents” (Janssen Pharmaceutica NV, priority 2005, dated 2012).
Converted amounts (≈) assume the structure as drawn. Read-outs that look alike come from different tables or passages of the source.

Tests used:
[1] = test system: E. coli KL-16 (GSC strain 4245); assay: In vitro antibacterial activity (MIC assay), broth microdilution; type: cell-based; conditions: Escherichia coli
Experimental: (§1) Minimal inhibitory concentration (MIC) has been an indicator of in vitro antibacterial activity widely used in the art. The in vitro antibacterial activity of the compounds was determined by the broth microdilution method described by the National Committee for Clinical Laboratory Standards (NCCLS) in the NCCLS Document M7-A5, Vol. 20, No. 2, “Methods for Dilution Antimicrobial Susceptibility Test for Bacteria that Grow Aerobically—Fifth Edition”, which is incorporated herein by reference.
(§2) In this method, an aliquot of test compound from an 11-point series of 2-fold serial dilutions of compounds in 100% DMSO was added to wells in microdilution plates. The test organisms were prepared by adjusting the turbidity of actively growing broth cultures so that the final concentration of test organism after addition to wells with or without compounds was approximately 5×10^5 CFU/mL.
(§3) Following inoculation of the microdilution plates, the plates were incubated at 35° C. for 16-24 h and then scored for bacterial growth. […] The amount of growth in the wells containing the test compound was compared with the amount of growth in the growth-control wells (no test compound used) in each plate, and with the amount of growth in the wells containing control compounds (such as ciprofloxacin). Compounds of the present invention were tested against several bacterial strains. The MIC values (in μg/mL) are presented in Table 1 for Gram-negative (E. coli KL-16 (GSC strain 4245); data marked as (*) was obtained with E. coli ATCC25922) and Gram-positive bacteria (S. aureus ATCC13709; S. pneumoniae ATCC49619).

S. aureus ATCC13709 = assay: as above; type: cell-based; conditions: Staphylococcus aureus, ATCC13709; read-out: S. aureus ATCC13709 MIC
Experimental: as §1, §2, §3

S. pneumoniae ATCC49619 = assay: as above; type: cell-based; conditions: Streptococcus pneumoniae, ATCC49619; read-out: S. pneumoniae ATCC49619 MIC
Experimental: as §1, §2, §3

E. coli DNA gyrase = target: T1, E. coli DNA gyrase (Escherichia coli, UniProt P0AES4+P0AES6); assay: DNA gyrase inhibition assay (supercoiling); type: biochemical
T1 construct: purchased John Innes Enterprises Ltd. (John Innes Centre, UK)
T1 sequence (P0AES4 whole entry, one chain of several): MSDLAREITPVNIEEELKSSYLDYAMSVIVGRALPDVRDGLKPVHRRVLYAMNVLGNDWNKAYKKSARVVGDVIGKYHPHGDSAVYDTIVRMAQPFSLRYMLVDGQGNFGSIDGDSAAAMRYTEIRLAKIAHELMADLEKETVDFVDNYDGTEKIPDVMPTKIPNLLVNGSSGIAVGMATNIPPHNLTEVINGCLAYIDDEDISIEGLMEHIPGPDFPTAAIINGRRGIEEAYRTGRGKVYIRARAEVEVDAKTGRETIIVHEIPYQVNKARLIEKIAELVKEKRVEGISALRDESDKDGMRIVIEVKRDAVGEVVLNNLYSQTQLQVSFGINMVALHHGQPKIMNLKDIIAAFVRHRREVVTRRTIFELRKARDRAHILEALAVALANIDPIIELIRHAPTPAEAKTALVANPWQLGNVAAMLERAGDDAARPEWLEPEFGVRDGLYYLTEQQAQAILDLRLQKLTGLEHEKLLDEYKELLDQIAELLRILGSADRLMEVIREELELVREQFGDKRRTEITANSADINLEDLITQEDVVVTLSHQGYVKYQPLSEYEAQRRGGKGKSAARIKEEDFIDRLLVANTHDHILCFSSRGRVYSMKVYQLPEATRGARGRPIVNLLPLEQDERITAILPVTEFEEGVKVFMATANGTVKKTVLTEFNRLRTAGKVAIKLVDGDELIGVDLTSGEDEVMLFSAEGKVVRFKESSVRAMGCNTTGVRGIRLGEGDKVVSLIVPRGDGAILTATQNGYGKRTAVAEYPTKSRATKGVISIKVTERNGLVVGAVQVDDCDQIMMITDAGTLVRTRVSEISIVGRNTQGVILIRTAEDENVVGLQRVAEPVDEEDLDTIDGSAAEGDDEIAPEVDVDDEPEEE
Experimental: Inhibition of the supercoiling activity of E. coli DNA gyrase was determined using enzymes, buffers and substrates received from John Innes Enterprises Ltd. (John Innes Centre, UK). The reactions were performed according to the manufacturer's directions, with the following modifications.
DNA supercoiling reactions were carried out in a total reaction volume of 20 μL containing 250 ng of relaxed pBR322, 35 mM Tris-HCl (pH 7.5), 24 mM KCl, 4 mM MgCl2, 2 mM dithiothreitol, 1.8 mM spermidine, 1 mM ATP, 6.5% glycerol and 100 μg/mL albumin. Compounds diluted in 10% DMSO were added to the reaction mixture to reach a final concentration of 0.5% DMSO. Enzyme was diluted to […] in a solution of 50 mM Tris-HCl (pH 7.5), 100 mM KCl, 2 mM dithiothreitol, 1 mM EDTA, and 50% glycerol. Diluted enzyme (0.2 unit) was added to each reaction.
The reactions were incubated at 37° C. for 30 min. The reactions were then cooled to 0° C., followed by addition of 3 μL of 40% glycerol, 100 mM Tris-HCl (pH 7.5), 50 mM EDTA, 0.5% SDS and 0.1% bromophenol blue. Samples were separated on 1.0% agarose gels. Gels were stained with Ethidium bromide and photographed with a Stratagene Eagle Eye II.

[2] = E. coli DNA gyrase supercoiling, visual inspection of gels, read-out: DNA Gyrase IC50 (converted)

Structure (SMILES) | MIC [1] [µg/mL] | MIC (S. aureus ATCC13709) [µg/mL] | MIC (S. pneumoniae ATCC49619) [µg/mL] | IC50 (E. coli DNA gyrase; [2]) [µM] | IC50 (E. coli DNA gyrase) [µM]
COc1ccc2nccc(-n3cc4c(n3)CCC(NC(=O)/C=C/c3cccc(Cl)c3)C4)c2n1 (stereo not drawn) [Example 12, 3-(3-Chloro-phenyl)-N-[2-(6-methoxy-[1,5]naphthyridin-4-yl)-4,5,6,7-tetrahydro-2H-indazol-5-yl]-acrylamide] | > 128 | 0.25 (≈ 0.544 µM) | 8 (≈ 17.4 µM) | 4.35 | 
COc1ccc2nccc(-n3cc4c(n3)CCC(NC(=O)C(=O)c3cc5ccccc5[nH]3)C4)c2c1 (stereo not drawn) [Example 26, 2-(1H-Indol-2-yl)-N-[2-(6-methoxy-quinolin-4-yl)-4,5,6,7-tetrahydro-2H-indazol-5-yl]-2-oxo-acetamide] | > 128 | 0.25 (≈ 0.537 µM) | 2 (≈ 4.3 µM) | > 34.4 | 
COc1ccc2nccc(-n3cc4c(n3)CCC(NCc3cc5c(cc3F)OCCO5)C4)c2n1 (stereo not drawn) [Example 43, (7-Fluoro-2,3-dihydro-benzo[1,4]dioxin-6-ylmethyl)-[2-(6-methoxy-[1,5]naphthyridin-4-yl)-4,5,6,7-tetrahydro-2H-indazol-5-yl]-amine] | 16 (≈ 34.7 µM) | > 0.125 | 1 (≈ 2.17 µM) | 1.08 | 
COc1ccc2nccc(-n3cc4c(n3)CCC(NCCOc3ccccc3)C4)c2n1 (stereo not drawn) [Example 65, [2-(6-Methoxy-[1,5]naphthyridin-4-yl)-4,5,6,7-tetrahydro-2H-indazol-5-yl]-(2-phenoxy-ethyl)-amine] | > 128 | 0.5 (≈ 1.2 µM) | 1 (≈ 2.41 µM) | 2.41 | 
COc1ccc2nccc(-n3cc4c(n3)CCC(NCCCc3ccc(C)cc3)C4)c2n1 (stereo not drawn) [Example 49, [2-(6-Methoxy-[1,5]naphthyridin-4-yl)-4,5,6,7-tetrahydro-2H-indazol-5-yl]-(3-p-tolyl-propyl)-amine] | 128 (≈ 299 µM) | < 0.125 | 0.5 (≈ 1.17 µM) | 7.02 | 
COc1ccc2nccc(-n3cc4c(n3)CCC(NCc3cc5c(cc3F)SCCN5)C4)c2c1 (stereo not drawn) [Example 106] | 8 (≈ 16.8 µM) | 0.5 (≈ 1.05 µM) | 1 (≈ 2.1 µM) |  | 4.21
COc1ccc2nccc(-n3cc4c(n3)CCC(NC(=O)c3cc5c(cc3C(F)(F)F)SCC(=O)N5)C4)c2n1 (stereo not drawn) [Example 112, 3-Oxo-7-trifluoromethyl-3,4-dihydro-2H-benzo[1,4]thiazine-6-carboxylic acid [2-(6-methoxy-[1,5]naphthyridin-4-yl)-4,5,6,7-tetrahydro-2H-indazol-5-yl]-amide] | 4 (≈ 7.21 µM) | 0.125 (≈ 0.225 µM) | 8 (≈ 14.4 µM) | 0.451 | 
COc1ccc2nccc(-n3cc4c(n3)CCC(NC(=O)/C=C/c3cc(F)ccc3C(F)(F)F)C4)c2n1 (stereo not drawn) [Example 91, 3-(5-Fluoro-2-trifluoromethyl-phenyl)-N-[2-(6-methoxy-[1,5]naphthyridin-4-yl)-4,5,6,7-tetrahydro-2H-indazol-5-yl]-acrylamide] | > 128 | 4 (≈ 7.82 µM) | > 128 | > 31.3 | 
COc1ccc2nccc(-n3cc4c(n3)CC(NC(=O)c3cc5c(cc3F)SCC(=O)N5)CC4)c2c1 (stereo not drawn) [Example 28, 7-Fluoro-3-oxo-3,4-dihydro-2H-benzo[1,4]thiazine-6-carboxylic acid [2-(6-methoxy-quinolin-4-yl)-4,5,6,7-tetrahydro-2H-indazol-6-yl]-amide] | 16 (≈ 31.8 µM) | 0.25 (≈ 0.496 µM) | 4 (≈ 7.94 µM) | 3.97 | 
COc1ccc2nccc(-n3cc4c(n3)CCC(NC(=O)/C=C/c3cc(F)cc(F)c3)C4)c2n1 (stereo not drawn) [Example 11, 3-(3,5-Difluoro-phenyl)-N-[2-(6-methoxy-[1,5]naphthyridin-4-yl)-4,5,6,7-tetrahydro-2H-indazol-5-yl]-acrylamide] | > 128 | < 0.125 | 16 (≈ 34.7 µM) | 4.33 | 
O=C1CSc2ccc(CNC3CCc4c(cnn4-c4cc(C(F)(F)F)nc5ccccc45)C3)cc2N1 (stereo not drawn) [Example 139, 6-{[1-(2-Trifluoromethyl-quinolin-4-yl)-4,5,6,7-tetrahydro-1H-indazol-5-ylamino]-methyl}-4H-benzo[1,4]thiazin-3-one] | > 128 | 8 (≈ 15.7 µM) | 32 (≈ 62.8 µM) | > 31.4 | 
COc1ccc2nccc(-n3cc4c(n3)CCC(N(Cc3ccccc3)Cc3ccc5c(c3)NC(=O)CS5)C4)c2n1 (stereo not drawn) [Example 66, 6-({Benzyl-[2-(6-methoxy-[1,5]naphthyridin-4-yl)-4,5,6,7-tetrahydro-2H-indazol-5-yl]amino}-methyl)-4H-benzo[1,4]thiazin-3-one] | > 128 | 8 (≈ 14.2 µM) | > 128 | 3.55 | 
COc1ccc2nccc(-n3cc4c(n3)CCC(NCc3ccc(N(C)C)c(C#N)c3F)C4)c2n1 (stereo not drawn) [Example 35, 6-Dimethylamino-2-fluoro-3-{[2-(6-methoxy-[1,5]naphthyridin-4-yl)-4,5,6,7-tetrahydro-2H-indazol-5-ylamino]-methyl}-benzonitrile] | > 128 | < 0.125 | 1 (≈ 2.12 µM) | 4.24 | 
COc1ccc2nccc(-n3cc4c(n3)CCC(NCc3cc5c(cc3Cl)OCCO5)C4)c2n1 (stereo not drawn) [Example 104, (7-Chloro-2,3-dihydro-benzo[1,4]dioxin-6-ylmethyl)-[2-(6-methoxy-[1,5]naphthyridin-4-yl)-4,5,6,7-tetrahydro-2H-indazol-5-yl]-amine] | 8 (≈ 16.7 µM) | 0.125 (≈ 0.262 µM) | 1 (≈ 2.09 µM) | 1.05 | 
COc1ccc2nccc(-n3cc4c(n3)CCC(NCC(=O)Nc3ccc(C)cc3)C4)c2n1 (stereo not drawn) [Example 60, 2-[2-(6-Methoxy-[1,5]naphthyridin-4-yl)-4,5,6,7-tetrahydro-2H-indazol-5-ylamino]-N-p-tolyl-acetamide] | > 128 | 1 (≈ 2.26 µM) | 8 (≈ 18.1 µM) | > 36.2 | 
COc1ccc2nccc(-n3cc4c(n3)CCC(NC(=O)c3cc(F)c5c(c3)OCCO5)C4)c2c1 (stereo not drawn) [Example 128, 8-Fluoro-2,3-dihydro-benzo[1,4]dioxine-6-carboxylic acid [2-(6-methoxy-quinolin-4-yl)-4,5,6,7-tetrahydro-2H-indazol-5-yl]-amide] | > 128 | 2 (≈ 4.22 µM) | 8 (≈ 16.9 µM) |  | 
COc1ccc2nccc(-n3cc4c(n3)CCC(NCc3cc(OC)c(OC)cc3F)C4)c2n1 (stereo not drawn) [Example 88, (2-Fluoro-4,5-dimethoxy-benzyl)-[2-(6-methoxy-[1,5]naphthyridin-4-yl)-4,5,6,7-tetrahydro-2H-indazol-5-yl]-amine] | > 128 | 4 (≈ 8.63 µM) | 8 (≈ 17.3 µM) |  | 
COc1ccc2nccc(-n3cc4c(n3)CCC(NC(=O)c3ccc5c(c3)OCCO5)C4)c2c1 (stereo not drawn) [Example 16, 2,3-Dihydro-benzo[1,4]dioxine-6-carboxylic acid [2-(6-methoxy-quinolin-4-yl)-4,5,6,7-tetrahydro-2H-indazol-5-yl]-amide] | > 128 | 2 (≈ 4.38 µM) | 8 (≈ 17.5 µM) |  | 
COc1ccc2nccc(-n3cc4c(n3)CCC(NC(=O)c3cc(NC(C)=O)ccc3Br)C4)c2n1 (stereo not drawn) [Example 124, 5-Acetylamino-2-bromo-N-[2-(6-methoxy-[1,5]naphthyridin-4-yl)-4,5,6,7-tetrahydro-2H-indazol-5-yl]-benzamide] | > 128 | 4 (≈ 7.47 µM) | > 128 |  | 
COc1ccc2nccc(-n3cc4c(n3)CCC(NC(=O)c3ccc(OC)c([N+](=O)[O-])c3)C4)c2n1 (stereo not drawn) [Example 119, 4-Methoxy-N-[2-(6-methoxy-[1,5]naphthyridin-4-yl)-4,5,6,7-tetrahydro-2H-indazol-5-yl]-3-nitro-benzamide] | > 128 | 4 (≈ 8.43 µM) | 8 (≈ 16.9 µM) |  | 
COc1ccc2nccc(-n3cc4c(n3)CCC(NCc3ccc(N(C)C)c(C#N)c3F)C4)c2c1 (stereo not drawn) [Example 126, 6-Dimethylamino-2-fluoro-3-{[2-(6-methoxy-quinolin-4-yl)-4,5,6,7-tetrahydro-2H-indazol-5-ylamino]-methyl}-benzonitrile] | > 128 | 1 (≈ 2.13 µM) | 2 (≈ 4.25 µM) |  | 
